A short description of experiment [1]: Selectivity ratio of Ki for mu-opioid receptor in rat brain membranes to Ki for kappa opioid receptor in guinea pig brain membranes. The format is cell membranes.
In experiment [2] the target is Kappa-type opioid receptor (Cavia porcellus, UniProt P41144). Nature of the experiment: Displacement of [3H]U69,593 from kappa opioid receptor in guinea pig brain membranes after 2 hrs. It counts as cell membranes, Membrane. A general note: Loss of bound radioactivity is the signal in a displacement assay; it reports binding, not function.
The nature of experiment [3]: Selectivity ratio of Ki for delta-opioid receptor in rat brain membranes to Ki for kappa opioid receptor in guinea pig brain membranes. It counts as cell membranes.
For experiment [4], the target named is T1, Kappa-type opioid receptor (Homo sapiens, UniProt P41145). As to the kind of experiment: Antagonist activity at kappa opioid receptor (unknown origin). The format is functional.
The species named for another experiment is Oryctolagus cuniculus. Nature of the experiment: Antagonist activity at KOR in Japanese white rabbit vas deferens assessed as inhibition of asimadoline-induced suppression of electric field stimulated twitch response after 30 mins.
Experiment [5] concerns the target G_PROTEIN_RECEP_F1_2 domain-containing protein (Cavia porcellus, UniProt A0A286XTF2). Nature of the experiment: Displacement of [3H]DPDPE from delta-opioid receptor in guinea pig brain membranes after 30 mins by scintillation counting method. The format is cell membranes, Membrane.
The species entered for experiment [6] is Homo sapiens. As to the kind of experiment: Selectivity ratio of Ki for Mu opioid receptor (unknown origin) to Ki for kappa opioid receptor (unknown origin).
Experiment [7] is filed under the species Homo sapiens. Nature of the experiment: Selectivity ratio of Ki for delta opioid receptor (unknown origin) to Ki for kappa opioid receptor (unknown origin).
The target of experiment [8] is T2, Mu-type opioid receptor (Rattus norvegicus, UniProt P33535). As to the kind of experiment: Displacement of [3H]DAMGO from mu-opioid receptor in rat brain membranes after 2 hrs. It counts as cell membranes, Membrane.
The target in experiment [9] is Delta-type opioid receptor (Rattus norvegicus, UniProt P33533). Nature of the experiment: Displacement of [3H]DADLE from delta-opioid receptor in rat brain membranes after 2 hrs. The format is cell membranes, Membrane.
Experiment [10] deals with T2, Mu-type opioid receptor. Nature of the experiment: Displacement of [3H]-diprenorphine from rat mu-opioid receptor in expressed in rat C6 cell membranes after 1 hr.
Experiment [11] in a line: Selectivity ratio of Ki for rat mu-opioid receptor in expressed in rat C6 cell membranes to Ki for human kappa opioid receptor expressed in CHO cell membranes. It counts as cell-based.
Experiment [12] has as its target T1, Kappa-type opioid receptor. Nature of the experiment: Displacement of [3H]-diprenorphine from human kappa opioid receptor expressed in CHO cells after 1 hr. The format is cell-based.
For another experiment, the system named is Rattus norvegicus. Nature of the experiment: […] activity in po dosed rat assessed as reversal of U-69593-induced pain response. The format is functional.
For experiment [13], the target named is Delta-type opioid receptor (Homo sapiens, UniProt P41143). Nature of the experiment: Antagonist activity at human delta opioid receptor expressed in CHO cells assessed as stimulation of [35S]GTPgammaS. The format is functional, cell-based.
The target in experiment [14] is Mu-type opioid receptor (Homo sapiens, UniProt P35372). Nature of the experiment: Antagonist activity at human mu opioid receptor expressed in CHO cells assessed as stimulation of [35S]GTPgammaS. The format is functional, cell-based. A general note: GTPγS resists hydrolysis and so accumulates on activated G proteins.
Experiment [15] deals with T1, Kappa-type opioid receptor. As to the kind of experiment: Antagonist activity at human kappa opioid receptor expressed in CHO cells assessed as stimulation of [35S]GTPgammaS. It counts as functional, cell-based.
The target of experiment [16] is Kappa-type opioid receptor (Cavia porcellus) (UniProt P41144). Nature of the experiment: Displacement of [3H]CI-977 from kappa opioid receptor in guinea pig brain membranes after 2 hrs by scintillation counting method. The format is cell membranes. Particulars: Membrane, concentration not given here.

Each structure is given as a SMILES string. Residues, ends and D or L forms follow the SMILES beside them.

T1 sequence (P41145 whole entry): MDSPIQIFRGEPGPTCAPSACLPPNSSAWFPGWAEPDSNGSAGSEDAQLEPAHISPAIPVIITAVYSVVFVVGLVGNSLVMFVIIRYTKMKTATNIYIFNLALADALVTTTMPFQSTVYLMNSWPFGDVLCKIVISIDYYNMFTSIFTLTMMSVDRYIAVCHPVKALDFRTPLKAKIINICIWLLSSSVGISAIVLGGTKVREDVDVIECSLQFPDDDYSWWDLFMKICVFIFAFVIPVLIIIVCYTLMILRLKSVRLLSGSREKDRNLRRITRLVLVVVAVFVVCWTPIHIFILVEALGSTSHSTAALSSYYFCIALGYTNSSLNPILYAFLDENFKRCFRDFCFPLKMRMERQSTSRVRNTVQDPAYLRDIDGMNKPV
T2 sequence (P33535 whole entry): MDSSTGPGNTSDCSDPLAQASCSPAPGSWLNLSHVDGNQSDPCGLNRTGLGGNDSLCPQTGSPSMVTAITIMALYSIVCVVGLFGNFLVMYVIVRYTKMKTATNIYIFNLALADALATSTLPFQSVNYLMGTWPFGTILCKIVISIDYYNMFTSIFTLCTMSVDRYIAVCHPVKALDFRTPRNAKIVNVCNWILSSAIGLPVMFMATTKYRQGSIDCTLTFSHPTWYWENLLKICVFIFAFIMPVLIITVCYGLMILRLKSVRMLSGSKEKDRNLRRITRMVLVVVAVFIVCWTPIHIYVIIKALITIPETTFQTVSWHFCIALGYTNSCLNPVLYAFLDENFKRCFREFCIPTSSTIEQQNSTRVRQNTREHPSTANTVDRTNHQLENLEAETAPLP
Delta-type opioid receptor (Rattus norvegicus, UniProt P33533), sequence (P33533 whole entry): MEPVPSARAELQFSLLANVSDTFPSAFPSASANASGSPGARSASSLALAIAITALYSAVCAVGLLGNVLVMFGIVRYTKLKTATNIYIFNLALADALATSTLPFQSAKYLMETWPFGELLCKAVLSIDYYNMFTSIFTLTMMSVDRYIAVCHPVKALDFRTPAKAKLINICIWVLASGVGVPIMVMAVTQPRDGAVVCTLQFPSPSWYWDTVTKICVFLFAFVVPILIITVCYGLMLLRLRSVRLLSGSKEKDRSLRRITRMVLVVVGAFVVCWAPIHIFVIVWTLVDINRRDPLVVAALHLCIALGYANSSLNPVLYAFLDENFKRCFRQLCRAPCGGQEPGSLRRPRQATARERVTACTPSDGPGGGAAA
G_PROTEIN_RECEP_F1_2 domain-containing protein, sequence (A0A286XTF2 whole entry): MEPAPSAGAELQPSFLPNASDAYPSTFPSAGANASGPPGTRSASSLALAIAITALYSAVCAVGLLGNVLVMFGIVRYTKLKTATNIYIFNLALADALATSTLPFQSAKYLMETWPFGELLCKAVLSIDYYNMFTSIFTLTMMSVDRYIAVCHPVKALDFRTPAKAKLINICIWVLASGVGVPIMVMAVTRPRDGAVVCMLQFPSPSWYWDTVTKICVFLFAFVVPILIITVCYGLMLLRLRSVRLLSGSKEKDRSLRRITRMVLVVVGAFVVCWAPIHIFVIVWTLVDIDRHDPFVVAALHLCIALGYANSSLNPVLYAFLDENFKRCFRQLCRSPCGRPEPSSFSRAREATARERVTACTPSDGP
Kappa-type opioid receptor (Cavia porcellus), sequence (P41144 whole entry): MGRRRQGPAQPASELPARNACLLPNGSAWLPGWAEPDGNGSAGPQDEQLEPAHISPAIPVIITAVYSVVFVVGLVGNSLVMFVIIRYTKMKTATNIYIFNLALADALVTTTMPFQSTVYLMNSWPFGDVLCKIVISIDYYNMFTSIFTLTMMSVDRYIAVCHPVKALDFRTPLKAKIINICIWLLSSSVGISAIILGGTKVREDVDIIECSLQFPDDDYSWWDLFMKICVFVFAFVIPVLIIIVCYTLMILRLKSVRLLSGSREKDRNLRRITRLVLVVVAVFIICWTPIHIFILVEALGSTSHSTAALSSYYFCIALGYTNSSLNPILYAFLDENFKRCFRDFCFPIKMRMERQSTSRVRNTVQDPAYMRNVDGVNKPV
Kappa-type opioid receptor (Cavia porcellus, UniProt P41144), sequence (P41144 whole entry): as above
Delta-type opioid receptor (Homo sapiens, UniProt P41143), sequence (P41143 whole entry): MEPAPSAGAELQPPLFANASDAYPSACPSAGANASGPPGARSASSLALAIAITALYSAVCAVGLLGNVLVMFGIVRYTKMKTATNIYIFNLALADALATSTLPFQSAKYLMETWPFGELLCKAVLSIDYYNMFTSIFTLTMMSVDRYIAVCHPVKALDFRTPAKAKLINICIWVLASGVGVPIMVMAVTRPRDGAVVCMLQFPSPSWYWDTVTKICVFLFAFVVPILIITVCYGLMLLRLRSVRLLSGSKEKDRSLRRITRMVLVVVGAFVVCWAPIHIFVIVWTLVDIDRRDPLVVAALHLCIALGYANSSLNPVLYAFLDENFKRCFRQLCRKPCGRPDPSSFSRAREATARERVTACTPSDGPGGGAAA
Mu-type opioid receptor (Homo sapiens, UniProt P35372), sequence (P35372 whole entry): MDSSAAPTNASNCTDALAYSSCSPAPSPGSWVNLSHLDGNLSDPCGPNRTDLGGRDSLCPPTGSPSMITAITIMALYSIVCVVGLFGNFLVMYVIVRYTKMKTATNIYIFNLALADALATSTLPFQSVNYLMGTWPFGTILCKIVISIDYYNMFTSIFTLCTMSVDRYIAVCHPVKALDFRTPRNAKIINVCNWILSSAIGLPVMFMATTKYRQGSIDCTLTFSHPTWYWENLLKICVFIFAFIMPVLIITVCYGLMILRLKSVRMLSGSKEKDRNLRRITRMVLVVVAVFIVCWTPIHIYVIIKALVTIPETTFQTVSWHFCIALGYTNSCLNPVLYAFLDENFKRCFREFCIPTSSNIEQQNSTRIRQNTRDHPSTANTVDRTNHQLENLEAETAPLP

In general, Ki refers to the dissociation constant of the complex between target and ligand, obtained from inhibition or displacement. Take `CC(=O)N1Cc2cc(O)ccc2C[C@@H]1C(=O)N[C@H](CN1CC[C@@](C)(c2cccc(O)c2)[C@@H](C)C1)C(C)C`: the Ratio Ki in experiment [1] is 5; in experiment [3] it was more than 34. In [2], the affinity, expressed as Ki, was 164 nM.

In turn, `N=C(N)NCCC[C@@H]1NC(=O)[C@H](CCCNC(=N)N)NC(=O)[C@H](NC(=O)[C@H](Cc2ccccc2)NC(=O)CNC(=O)CNC(=O)[C@H](Cc2ccc(O)cc2)NCc2ccccc2)CC(=O)NC[C@@H](C(=O)N[C@@H](CCCNC(=N)N)C(=O)N2CCC[C@H]2C(=O)N[C@@H](CCCCN)C(N)=O)NC1=O` showed a Ki in experiment [4] of 30 nM.

In general, IC50 refers to the concentration that gives 50% inhibition. In the case of `O=C1N[C@@H](Cc2ccccc2)C(=O)N2CCC[C@@H]2C(=O)N[C@@H](Cc2ccccc2)C(=O)N[C@H]1Cc1c[nH]c2ccccc12` (HELM PEPTIDE1{F.W.F.[dP]}$PEPTIDE1,PEPTIDE1,1:R1-4:R2$$$V2.0), the ED50 in the experiment listed under Oryctolagus cuniculus is 1300 nM. For the same molecule, the IC50 in experiment [5] is 2600 nM.

Take `CC(=O)N[C@@H](Cc1ccccc1)C(=O)N[C@@H](Cc1ccccc1)C(=O)N[C@@H](Cc1ccccc1)C(=O)N[C@@H](CCCNC(=N)N)C(=O)N[C@@H](CC(C)C)C(=O)N[C@@H](CCCNC(=N)N)C(=O)N[C@@H](CCCNC(=N)N)C(=O)N[C@H](C)C(=O)N[C@@H](CCCNC(=N)N)C(=O)N1CCC[C@H]1C(=O)N[C@@H](CCCCN)C(N)=O` (HELM PEPTIDE1{[ac].F.F.F.R.L.R.R.[dA].R.P.K.[am]}$$$$V2.0): the Ki in [4] stood at 10 nM. The Ratio Ki in the experiment filed under Homo sapiens [6] is 174; in the experiment filed under Homo sapiens [7], 583.

Turning to `CC(C)[C@@H](CN1CC[C@@](C)(c2cccc(O)c2)[C@@H](C)C1)NC(=O)[C@H]1Cc2ccc(O)cc2CN1C`, the Ratio Ki turned out to be 700 in [1] and 11600 in experiment [3].

Take `CC(C)[C@@H](CN1CC[C@@](C)(c2cccc(O)c2)[C@@H](C)C1)NC(=O)[C@H]1Cc2ccc(O)cc2CN1` [JDTIC]: the results for the Ki (on Mu-type opioid receptor [8]; in experiment [9]) were 2.16 nM and more than 300 nM, respectively.

Regarding `C[C@H]1CN(CCCOC(=O)[C@H]2Cc3ccc(O)cc3CN2)CC[C@@]1(C)c1cccc(O)c1`, the figures for the Ki (at Mu-type opioid receptor [10]; in experiment [12]) were 93 nM and 174 nM, respectively. Besides, the Ratio Ki in experiment [11] was determined as 0.54.

For the molecule `CC(C)[C@@H](CN1CC[C@@](C)(c2cccc(O)c2)[C@@H](C)C1)NC(=O)[C@H]1Cc2ccc(O)cc2CN1C(=O)CN(C)C`, the results for the Ratio Ki in [1] and in experiment [3] were 11 and more than 219, respectively.

On to `Cc1cc(C)cc([C@@H]2CCCN2Cc2ccc(Oc3ccc(C(N)=O)cc3F)cc2)c1` [ATICAPRANT], for which the ED50 in the experiment on Rattus norvegicus was 0.4 mg/kg.

`CCCCC(=N)NCCc1ccc2c(c1)C1C[C@@]3(O)[C@H]4Cc5ccc(O)c6c5[C@@]3(CCN4CC3CC3)[C@@H](O6)C1N2` (some centres not stated): the results for the Ki (in [13]; at Mu-type opioid receptor [14]; in [15]) were 3.31 nM, 5.33 nM and 0.17 nM, respectively.

What is called inhibition is the drop in the measured response relative to a control, in per cent. As for `CC(C)CNCc1ccc(-c2ccccc2S(=O)(=O)N2CCCC2)cc1`, the inhibition in experiment [16] was determined as 82%.

`CCOC(=O)C(CN1CC[C@@](C)(c2cccc(O)c2)[C@@H](C)C1)OC(=O)[C@H]1Cc2ccc(O)cc2CN1` (some centres not stated): the Ki in experiment [12] was 2.39 nM.

Regarding `C[C@H]1CN(CCOC(=O)[C@H]2Cc3ccc(O)cc3CN2)CC[C@@]1(C)c1cccc(O)c1`, the Ki was 97.7 nM on Mu-type opioid receptor [10] and 135 nM in experiment [12]. Moreover, in [11], the Ratio Ki was 0.72.
